Reference: patent US10912832B2, “Multi-drug delivery system and uses thereof” (Academia Sinica, priority 2014, dated 2021)

Columns and labels:
HLI mouse model [1] = test: Hindlimb ischemia (HLI) model, PEG-IGF-1: laser Doppler blood flow and limb appearance; format: in vivo, mice
Protocol: (§1) Microvascular blood flow was measured on a laser Doppler imager (Moor Instrument, UK). The blood flow before surgery, 1 day afterwards, every week for the following 4 weeks was recorded for both limbs and before sacrificing the mice. The data are presented as the blood flow ratio of the ischemia limb (left) to the normal limb (right).

[2] = tested on: apoptotic cells at the HA/AGP4 injection site in the ischemic leg muscle; test: HLI model, PEG-IGF-1: TUNEL assay of ischemic leg muscle
Excerpt: The HLI model was created by performing the left femoral artery and iliac artery ligation in mice and then cut to induce hindlimb ischemia (Limbourg et al., Nat. Protocols (2009) 4, 1737-1748.). The administrations for the experimental mice were divided into 3 parts: PEG-IGF-1, PEG-G-CSF, and the combined treatment. The treatment of PEG-IGF-1 and PEG-G-CSF are including five groups: Sham, HLI with the treatment of, 2% HA alone plus therapeutics or HA with AGP4 and followed by PBS or therapeutics. […]
The fixed distal calf and thigh muscles were deparaffinized, rehydrated and boiled in 10 mM sodium citrate (pH 6.0) for 10 minutes, followed by incubation with antibodies against tropomyosin (DHSB, Iowa city, Iowa, USA), WGA and isolectin (Invitrogen, Grand Island, N.Y., USA) at 4° C. overnight, and then incubated with Alexa Fluor 488- or 568-conjugated secondary antibodies (Invitrogen, Carlsbad, Calif., USA). After staining with DAPI (Sigma-Aldrich, St. Louis, Mo., USA), sections were mounted and observed under confocal microscope (LSM 700, Carl Zeiss MicroImaging, Germany) and fluorescence microscope. The capillary and arteriole densities at the border zone were measured and images were taken from 8 randomly-selected ischemic areas (200× magnification) in each sample and quantification was performed by manually counting each section; the 8 values were averaged. […]

[3] = tested on: hematopoietic stem cells (HSCs) and endothelial progenitor cells (EPCs); test: HLI model, PEG-G-CSF: anti-CD34 / anti-CD133 staining of recruited cells; format: in vivo, mice; conditions: HA/AGP4 + PEG-G-CSF vs HA-alone+PEG-G-CSF and HA/AGP4+PBS
Excerpt: (§2) Results are depicted in FIGS. 5B to 5C.

HLI mouse model [4] = test: HLI model, PEG-G-CSF: laser Doppler blood flow and limb appearance; format: in vivo, mice; conditions: HA-alone + PEG-G-CSF
Protocol: as §1, §2

Row | Molecule | nail discoloration (HLI mouse model [1]; HA-alone + PEG-IGF-1) | blood flow of ischemic leg compared with sham group (HLI mouse model [1]; HA-alone i.m. + PEG-IGF-1 iv, Day 1 or Day 2) | blood flow at the ischemic leg (HLI mouse model [1]; HA/AGP4 i.m. followed by PEG-IGF-1 iv (30 μg, three doses at 8 hrs interval)) | nail discoloration (HLI mouse model [1]; PEG-IGF-1 administered after HA/AGP4) | ischemic damage (HLI mouse model [1]; PEG-IGF-1 injections after HA/AGP4) | number of apoptotic cells (TUNEL) ([2]; HA-alone group, absence of AGP4) | number of apoptotic cells (TUNEL) ([2]; PEG-IGF-1 after administration of HA/AGP4) | number of recruited cells at the HA/AGP4 injection sites [3] | nail discoloration (HLI mouse model [4])
1 | PEG-IGF-1: PEGylated Insulin Growth Factor-1 | signs of nail discoloration | no significant improvement | did not improve the blood flow | not obvious | minimized the ischemic damage | failed to reduce the number of apoptotic cells | significant reduction in apoptotic cells | – | –
2 | PEG-G-CSF: PEGylated Granulocyte Colony-Stimulating Factor (protein, UniProt P09919 31-207, looked up, PEGylated, PEGylated Granulocyte Colony-Stimulating Factor) Granulocyte …: TPLGPASSLPQSFLLKCLEQVRKIQGDGAALQEKLVSECATYKLCHPEELVLLGHSLGIPWAPLSSCPSQALQLAGCLSQLHSGLFLYQGLLQALEGISPELGPTLDTLQLDVADFATTIWQQMEELGMAPALQPTQGAMPAFASAFQRRAGGVLVASHLQSFLEVSYRVLRHLAQP | – | – | – | – | – | – | – | increased the number of HSCs (CD133) and ECs (CD34) | nail discoloration was seen
